Source: patent US20060241174A1, “Vitamin E tocotrienols inhibition of intracellularly obligate pathogen Chlamydia and methods of use” (priority 2005, published 2006)

Key:
C. trachomatis serovar K = experiment: Inclusion count by immunofluorescence in C. trachomatis-infected mouse macrophages (J774A.1) treated with delta tocotrienol; format: cell-based, Chlamydia trachomatis
Description: FIG. 3 illustrates Chlamydia-infected mouse macrophage cells treated with delta tocotrienol (400× magnification). Mouse macrophages (J774A. 1 cells) were pretreated with a 30 μmol/L concentration of delta tocotrienol in culture for 4 hours and infected with C. trachomatis SVK for 48 hours. Arrows indicate inclusions. Cells were viewed and digitally documented using a Zeiss LSM 510 Meta Confocal System at a magnification of 400×. White arrows point out characteristic inclusions (Scale indicates 50 μm).
FIG. 4 illustrates Chlamydia-infected mouse macrophage cells treated with delta tocotrienol (630× magnification). White arrows point to representative cells. Note numerous very small, unfused inclusions in A (Scale indicates 50 μm).
(§1) Chlamydial Strains: Stocks of C. trachomatis serovar K/VR887 were grown in J774A.1 cells without centrifuge assistance. Infected cells were lysed, this stock aliquoted and frozen down in SPG freeze medium (75.0 g sucrose, 0.52 g potassium phosphate, 1.22 g sodium phosphate dibasic, 0.72 g glutamic acid, diluted in […] ddH2O). These aliquots were stored in liquid N2 or at −80° C., and later thawed for use to infect monolayers.
(§2) Cell Lines Used: Mouse macrophages (J774A.1), human mammary tumor cells (MCF-7), and human epithelial cells (Hep-2), were obtained from the American Type Culture collection. Human mammary tumor cells (TMX2-28) were a kind gift from Dr. Arcaro, and human B-lymphocytes (JY) were a kind gift from Dr. Eric Martz. All cell lines were maintained in Richter's improved MEM insulin (IMEMZO, Irvine Scientific, Santa Ana, Calif.) with 5% fetal bovine serum (FBS, Atlanta Biologicals, Norcross, Ga.). Cells were grown to 80% confluence on 12 mm coverslips in 12 well plates (Becton Dickinson Labware, Franklin Lakes, N.J.). A dilution of 1:125 or 1:200 of the C. trachomatis serovar K stock was made using the standard complete cycloheximide overlay media (Bio-Whittaker, Walkersville, Md.) containing 10% FBS, and 1× L-glutamine (CCOM). This was layered onto the coverslip containing monolayers, and incubated for 24-48 hours at 37° C. with 5% CO2. Coverslips with the cell monolayers were harvested, rinsed with phosphate buffered saline (PBS), fixed with 70% cold methanol, stored and subsequently immunostained.
Delta Tocotrienol Treatment: A stock of delta tocotrienol (98% purity, American River Nutrition, Hadley, Mass.) was diluted to 1 mg/1 ml in absolute ethanol [EtOH]. Confluent monolayers of J774A.1, MCF-7, TMX2-28, JY, or Hep-2 cells were treated with 5, 10, 20, 30, or 40 μmol/L concentrations of delta tocotrienol. Treatment occurred 5 hours prior to infection with C. trachomatis serovar K, at point of infection, or three hours post-infection.
Immunostaining: Briefly, infected cells were immunostained with a 1:2 dilution of guinea pig anti-chlamydia polyclonal antibody (Biomeda, Foster City, Calif.), or a 1:125 dilution of rabbit anti-chlamydia EB whole serum for 1 hour at 37° C. Following PBS rinses X3, the bound antibodies were detected using a 1:100 dilution of FITC-conjugated donkey anti-guinea pig or a 1:125 dilution of TRITC-conjugated goat anti-rabbit secondary antibodies (Jackson ImmunoResearch, West Grove, Pa.). Following incubation for 1 hour at room temperature and 3 rinses with PBS, coverslips were mounted onto slides using Fluoromount-G (Southern Biotechnology Associates Inc., Birmingham, Ala.) or Vectashield® Mounting Medium with DAPI (Vector Laboratories, Inc., Burlingame, Calif.), and were then sealed. Initially, slides were examined at 400× using a Nikon LABPHOT-2. For photography, slides were assessed in the Massachusetts Central Microscopy Facility using a Zeiss LSM 510 Meta Confocal System and 630× magnification. Images were captured, and as relevant, merged using the Confocal Assistant™ version 4.02 Image Processing Software.
Counts on all coverslips with experimental conditions as in FIG. 3 and 4 were done for the average of 10 fields of view. […]

C. trachomatis SVK = experiment: Flow cytometry on Chlamydia-infected human B-lymphocytes (JY) treated with delta tocotrienol; format: cell-based, Chlamydia trachomatis
Description: FIG. 5 illustrates flow cytometry on Chlamydia-infected human B-lymphocytes treated with delta tocotrienol. Human B-lymphocyte (JY) cells were treated with a 30 μmol/L concentration of delta tocotrienol in culture for 4 hours, infected with C. trachomatis SVK for 24-72 hours. Immunofluorescent Chlamydia-positive cells were detected by flow cytometry.
as §1
as §2, with “immunostained. […]” for “immunostained.”
Immunostaining: Briefly, infected cells were immunostained with a 1:2 dilution of guinea pig anti-chlamydia polyclonal antibody (Biomeda, Foster City, Calif.), or a 1:125 dilution of rabbit anti-chlamydia EB whole serum for 1 hour at 37° C. Following PBS rinses X3, the bound antibodies were detected using a 1:100 dilution of FITC-conjugated donkey anti-guinea pig or a 1:125 dilution of TRITC-conjugated goat anti-rabbit secondary antibodies (Jackson ImmunoResearch, West Grove, Pa.). […] For photography, slides were assessed in the Massachusetts Central Microscopy Facility using a Zeiss LSM 510 Meta Confocal System and 630× magnification. […]
Samples were analyzed for carriage of Chlamydia-infected cells by FACScan (Becton, Dickinson and Company, Franklin Lakes, N.J.).

[1] = First Infection, J774A.1, 30 μmol/L
[2] = Second Infection, J774A.1, 30 μmol/L
[3] = Third Infection, J774A.1, 30 μmol/L

Q: Which “morphology of chlamydial inclusions (FIG. 4)” value (C. trachomatis serovar K; 20-40 μmol/L delta tocotrienol, Chlamydia-specific immunofluorescence staining) does the source give for delta tocotrienol here?
A: immature, small, and less round

Q: What about the “Inclusions (per field of view), Small (≦10 μm)” value (C. trachomatis serovar K; [1]) of the same substance?
A: 4.5 per field of view

Q: And the “Inclusions (per field of view), Total” value (C. trachomatis serovar K; [1])?
A: 5.2 per field of view

Q: And the “Inclusions Total/Cell” value (C. trachomatis serovar K; [1])?
A: 0.058

Q: And the “Inclusions (per field of view), Large (15-20 μm)” value (C. trachomatis serovar K; First Infection, J774A.1, 30 μmol/L delta tocotrienol, average of 10 fields of view)?
A: 0.7 per field of view

Q: What about the “Percent Inhibition” value (C. trachomatis serovar K; First Infection, treated vs control, J774A.1, 30 μmol/L) of the same substance?
A: 52.3%

Q: And the “large, mature inclusions (FIG. 3)” value (C. trachomatis serovar K; J774A.1, 30 μmol/L pretreatment, 48 hours infection, 400× magnification)?
A: no evidence of large, mature inclusions

Q: What about the “size of large inclusions in the tocotrienol-treated cells” value (C. trachomatis serovar K; J774A.1, control cells 20 μm) of the same substance?
A: 10-15 μm

Q: What about the “inclusions thinner than in control cells (Z-axis)” value (C. trachomatis serovar K; J774A.1, optical sections, treated vs control) of the same substance?
A: 3 fold

Q: And the “inclusions smaller than in control cells (X-Y axes)” value (C. trachomatis serovar K; J774A.1, treated vs control)?
A: 2 to 3 fold

Q: And the “Inclusions (per field of view), Large (15-20 μm)” value (C. trachomatis serovar K; Second Infection (supernatant transfer to uninfected treated cells), J774A.1, 30 μmol/L)?
A: 1.4 per field of view

Q: What about the “Inclusions (per field of view), Small (≦10 μm)” value (C. trachomatis serovar K; [2]) of the same substance?
A: 0.6 per field of view

Q: And the “Inclusions (per field of view), Total” value (C. trachomatis serovar K; [2])?
A: 2.0 per field of view

Q: What about the “Inclusions Total/Cell” value (C. trachomatis serovar K; [2]) of the same substance?
A: 0.032

Q: What about the “Percent Inhibition” value (C. trachomatis serovar K; Second Infection, treated vs control, J774A.1, 30 μmol/L) of the same substance?
A: 43.8%

Q: What about the “Inclusions (per field of view), Large (15-20 μm)” value (C. trachomatis serovar K; [3]) of the same substance?
A: 0.7 per field of view

Q: What about the “Inclusions (per field of view), Small (≦10 μm)” value (C. trachomatis serovar K; [3]) of the same substance?
A: 1.1 per field of view

Q: What about the “Inclusions (per field of view), Total” value (C. trachomatis serovar K; [3]) of the same substance?
A: 1.8 per field of view

Q: What about the “Inclusions Total/Cell” value (C. trachomatis serovar K; [3]) of the same substance?
A: 0.016

Q: And the “Percent Inhibition” value (C. trachomatis serovar K; Third Infection, treated vs control, J774A.1, 30 μmol/L)?
A: 39.0%

Q: What about the “chlamydial inclusion volume smaller than control” value (C. trachomatis serovar K; calculated (2×3 to 3×3)) of the same substance?
A: 6-9 fold

Q: What about the “percent inhibition of inclusion formation in tocotrienol-treated as compared to untreated cells” value (C. trachomatis serovar K; summary of Table 1, 30 μmol/L) of the same substance?
A: 40-50%

Q: What about the “number of chlamydial inclusions (immunofluorescence staining)” value (C. trachomatis serovar K; tocotrienol-treated cells vs control, FIG. 3, Table 1) of the same substance?
A: decreased significantly

Q: What about the “maximum chlamydial inhibition in JY cells” value (C. trachomatis SVK; at 36 hours, 30 μmol/L, flow cytometry) of the same substance?
A: 2.6 fold

Q: And the persistence of effect (C. trachomatis SVK; following one single tocotrienol treatment)?
A: at least 3 days

Q: And the “period in which chlamydial inhibition was effective” value (C. trachomatis SVK; one single tocotrienol treatment)?
A: ≤ 1 days

Q: And the “chlamydial inhibition in JY cells” value (C. trachomatis SVK; over an infection period of 72 hours, 30 μmol/L, flow cytometry)?
A: at least 2 fold
